In US12419305B2, “Antimicrobial compositions” (Firmenich SA, priority 2018, dated 2025) one finds log reduction data, which are given here for two compounds.

One test has as its system C. xerosis ATCC 373. The test is described as follows: BCT test (bacterial contact time), 120 s, log reduction / effect fraction; CI by Compusyn. It is filed as cell-based. To be noted: Corynebacterium xerosis, ATCC373, 2 min, contact 120 s, 25% EtOH; for log reduction at 0.25 % strength: dose 0.25% w/v; for log reduction at 0.5 % strength: dose 0.5% w/v. How it is done: C. xerosis: Suspensions of the C. xerosis ATCC 373 strain were prepared as follows: Stock cultures (stored at −80° C.) were thawed and subcultured onto Tryptic Soy Agar media with Tween 80 (TSA-TW80), and incubated at 37° C. for 48 h. The primary cultures were subcultured onto TSA-TW80 again, to prepare the secondary cultures. Single colonies of the secondary cultures were selected and used to inoculate 30 ml brain heart infusion broth with Tween 80 (BHI-TW80). The inoculated broth was incubated at 37° C. at 180 rpm for 24 h. Aliquots (1 ml) of the 24 h culture were inoculated into 30 ml of fresh BHI-TW80 broth media, and incubated at 37° C. at 180 rpm for 48 h. Aliquots (2-3 ml) of the 48 h culture were inoculated into four 50 ml of fresh BHI-TW80 broth media, and incubated at 37° C. 180 rpm for 4-6 hrs. When the OD 600 nm reached the target value of 1.6, cells were harvested by centrifugation at 5000 rpm for 10 min, and then resuspended in the same fresh BHI-TW80 at a concentration of 10^9 to 10^10 cfu/mL. This suspension was used as the bacterial suspension for the BCT test.
(§1) BCT Test: Test compositions at a range of concentrations (either combinations of more than one perfume ingredient, and comparative compositions comprising the single perfume ingredients) were prepared in ethanol. Five replicates of each test composition were added into 96-well microtiter plates (120 μl per well), with row B containing control compositions containing the ethanol solution alone. 120 μl of bacterial cell suspensions at a concentration of approximately 1×10^8 bacteria per mL (as prepared above) were added to each well of the microtiter plate. The bacterial suspensions were incubated with the test solutions for 45, 60, or 120 seconds. Following the incubation of the bacterial suspensions with the test solutions, serial dilutions of the bacterial suspensions were generated (three serial 1:10 dilutions, followed by 17 serial 1:2 dilutions), in multiwell microtiter plates.
(§2) Each plate was sealed and incubated at 37° C. under agitation (180 rpm). After incubation, the turbidity of the wells (OD600 nm) was determined using a Tecan microplate reader. Turbid wells were regarded as positive growth, due to the presence of viable cells. The total number of viable cells (log CFU) for each sample was calculated. And the log reduction for each test composition at the final concentration (dose) was calculated against the control sample of the ethanol solution.
(§3) Determination of Synergy via the Combination Index (CI): The CI was calculated using Compusyn software (ComboSyn, Inc., as created by Dr. Dorothy Chou in 2005), according to the manufacturer's instructions. The concentration of each test composition (combinations of more than one perfume ingredient, and comparative compositions comprising the single perfume ingredients used to generate the combination) and their corresponding effect fraction was entered, and the corresponding CI calculated.
(§4) When the calculated CI values were less than 0.9, the combination of perfume ingredients was regarded as having synergistic effect. When the calculated CI was between 1.0 a 0.9, the combination of perfume ingredients was regarded as having an additive effect. When the calculated CI was greater than 1.0, the combination of perfume ingredients was regarded as having an antagonistic effect.

In a further test the test system is S. haemolyticus 114126. The description is as above. The settings on record: Staphylococcus haemolyticus, 114126, 2 min, contact 120 s, 25% EtOH; for log reduction at 0.25 % strength: dose 0.25% w/v; for log reduction at 0.5 % strength: dose 0.5% w/v. It is filed as cell-based. How it is done:
S. haemolyticus: Suspensions of the S. haemolyticus 114126 strain, isolated from skin, were prepared as follows: Stock cultures (stored at −80° C.) were thawed and sub-cultured onto TSA-TW80 agar plate media, and incubated at 37° C. for 24 h to obtain single colonies. Single colonies of the primary cultures were streaked onto fresh TSA-TW80 plates and incubated at 37° C. for 24 h to prepare secondary cultures. Single colonies of secondary cultures were picked and used to inoculate 50 mL of BHI-TW80 broth. The inoculated broth was incubated at 37° C. at 180 rpm for 18 h. Aliquots (0.5 ml) of the 18 h culture were inoculated into 50 ml of fresh BHI-TW80 broth, and incubated at 37° C. at 180 rpm for approximately 3 hours. When the OD 600 nm value of the broth reached 1-2, cells were harvested by centrifugation at 5000 rpm for 10 min, and then resuspended in fresh BHI-TW80 broth at a concentration of 1-5×10^8 CFU/mL. This suspension was used as the bacterial suspension for the BCT test.
as §1, §2, §3, §4

In the next test the test system is S. aureus ATCC 6538. The test can be described thus: BCT test (bacterial contact time), 60 s, log reduction / effect fraction; CI by Compusyn. It is filed as cell-based, Staphylococcus aureus. To be noted: Staphylococcus aureus, ATCC6538, 1 min, 60 s, in 25% EtOH; for log reduction at 0.3 % strength: dose 0.300 % w/v; for log reduction at 0.35 % strength: dose 0.350 % w/v; for log reduction at 0.4 % strength: dose 0.400 % w/v; for log reduction at 0.45 % strength: dose 0.45 % w/v. The method in brief: (§5)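 Log-phase cultures (OD600 1-2) were resuspended in TSB at about 1×10^8 bacteria/mL and mixed 1:1 with ethanolic perfume combinations or single ingredients, five replicates each. After the stated contact time, serial dilutions were grown at 37° C and viable counts derived from OD600 turbidity; log reduction is versus ethanol control.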

Test [1] deals with Pseudomonas aeruginosa ATCC 15442. Described as above. The settings on record: Pseudomonas aeruginosa, ATCC15442, 1 min, BCT 60 s, in 25% EtOH; for log reduction at 0.25 % strength: Dose 0.25 % w/v; for log reduction at 0.4 % strength: Dose 0.4 % w/v. It is filed as cell-based. The essentials: as §5
Test [2] concerns Salmonella enterica ATCC 10708. Described as above. It is filed as cell-based. The settings on record: Salmonella enterica, ATCC10708, 1 min, BCT 60 s, in 25% EtOH; for log reduction at 0.15 % strength: Dose 0.15 % w/v; for log reduction at 0.2 % strength: Dose 0.2 % w/v; for log reduction at 0.25 % strength: Dose 0.25 % w/v; for log reduction at 0.3 % strength: Dose 0.3 % w/v. The essentials: as §5

Setting [3] is: dose 0.4% w/v, read-out: Log reduction.

Molecules are shown by their SMILES.

On to `CC(=O)OCc1ccccc1` [Benzyl acetate, benzyl acetate], for which the log reduction at 0.25 % strength in the test with C. xerosis ATCC 373 (read-out: Log reduction) was 0; with S. haemolyticus 114126 (read-out: Log reduction), 0.2; in the test on S. aureus ATCC 6538 (dose 0.250 % w/v, read-out: Log reduction), 0.8; in test [1] (read-out: Log reduction), 3.9; in test [2], 6.5. Moreover, the log reduction at 0.4 % strength in the test on C. xerosis ATCC 373 (setting [3]) was found to be 1.1; in the test with S. haemolyticus 114126 (setting [3]), 2.5; in the test on S. aureus ATCC 6538 (read-out: Log reduction) it was 6.7; in test [1] (read-out: Log reduction), 7.4. Also, the log reduction at 0.5 % strength in the test with C. xerosis ATCC 373 is 2.8; with S. haemolyticus 114126, 6.2; in test [1] (Dose 0.5 % w/v), 7.4. Besides, the log reduction at 0.75 % strength in the test on C. xerosis ATCC 373 (dose 0.75% w/v) was 4.6. Further, in the test on C. xerosis ATCC 373 (dose 1.0% w/v), the log reduction at 1 % strength was 5.2. Also, the log reduction at 0.3 % strength was 0.5 with S. haemolyticus 114126 (dose 0.3% w/v, read-out: Log reduction); 1.9 with S. aureus ATCC 6538 (read-out: Log reduction); 7.7 in test [2]. Besides, the log reduction at 0.35 % strength stood at 1.3 in the test with S. haemolyticus 114126 (dose 0.35% w/v) and 5.1 with S. aureus ATCC 6538 (read-out: Log reduction). For the same compound, the log reduction at 0.45 % strength with S. aureus ATCC 6538 came out at 7.1; in test [1] (Dose 0.45 % w/v, read-out: Log reduction), 7.4. Besides, the log reduction at 0.2 % strength in test [1] (Dose 0.2 % w/v, read-out: Log reduction) was determined as 1.2; in test [2], 1.9. In addition, the log reduction at 0.15 % strength in test [2] worked out at 0. In addition, the log reduction at 0.225 % strength in test [2] (Dose 0.225 % w/v) was 5.

With `OC/C=C/c1ccccc1` [Cinnamic alcohol, (2E)-3-phenyl-2-propen-1-ol], the log reduction at 0.25 % strength was 0 in the test on C. xerosis ATCC 373 (read-out: Log reduction), 0.2 with S. haemolyticus 114126 (read-out: Log reduction), 4.1 in test [1] (read-out: Log reduction) and 4.9 in test [2]. For the same compound, the log reduction at 0.5 % strength amounted to 2.9 in the test on C. xerosis ATCC 373; 4.1 with S. haemolyticus 114126; 6.9 in the test on S. aureus ATCC 6538 (dose 0.500 % w/v, read-out: Log reduction). Also, in the test with C. xerosis ATCC 373 (dose 0.6% w/v), the log reduction at 0.6 % strength came to 4.3. Further, the log reduction at 0.7 % strength in the test on C. xerosis ATCC 373 (dose 0.7% w/v) is 6. Besides, the log reduction at 0.8 % strength with C. xerosis ATCC 373 (dose 0.8% w/v) is 7.2. Also, the log reduction at 1 % strength in the test on S. haemolyticus 114126 (dose 1.0% w/v) was 7.3. The log reduction at 1.25 % strength in the test on S. haemolyticus 114126 (dose 1.25% w/v) was determined as 7.3. The log reduction at 1.5 % strength in the test on S. haemolyticus 114126 (dose 1.5% w/v) came out at 7.3. Further, the log reduction at 0.3 % strength in the test on S. aureus ATCC 6538 (read-out: Log reduction) turned out to be 1.8; in test [1] (Dose 0.3 % w/v, read-out: Log reduction) it was 6.7; in test [2], 7.8. Also, the log reduction at 0.35 % strength in the test with S. aureus ATCC 6538 (read-out: Log reduction) is 2.6. The log reduction at 0.4 % strength was 5.5 in the test with S. aureus ATCC 6538 (read-out: Log reduction) and 7.5 in test [1] (read-out: Log reduction). In addition, the log reduction at 0.45 % strength in the test with S. aureus ATCC 6538 was determined as 6.9. Also, in test [2], the log reduction at 0.15 % strength is 0.5. Further, the log reduction at 0.175 % strength in test [2] (Dose 0.175 % w/v) stood at 1. Moreover, in test [2], the log reduction at 0.2 % strength worked out at 1.5.
